Experimental data published in patent US20250186470A1, “Compositions and Methods Using Lactulose for Treating Disease” (THE UNIVERSITY OF CHICAGO, priority 2023, published 2025).

How the values were obtained:
[1] = system: Enterococcus; assay: Fecal shotgun metagenomics of hospitalized liver disease patients stratified by lactulose exposure: Enterococcus abundance; type: in vivo, human; settings: for Regression estimate, association with Enterococcus abundance: Table S1, factors lactulose, PPI, stool consistency, antibiotics
[2] = system: Bifidobacteria; assay: Fecal shotgun metagenomics of hospitalized liver disease patients stratified by lactulose exposure: Bifidobacteria abundance; type: in vivo, human; settings: for Regression estimate, association with Bifidobacteria abundance: Table S1, factors lactulose, PPI, stool consistency, antibiotics
[3] = system: bacteremia; assay: Bacteremia in liver disease patients paired with fecal samples, logistic regression; type: in vivo, human
From the text: FIGS. 13A-13E: Bifidobacteria expansion and associated metabolite production are associated with decreased incidence of bacteremia). (A) Flow diagram depicting number of samples and number of patients that were filtered out at each step of analysis for bacteremia. (B) Taxonomic relative abundance by shotgun metagenomics of stool samples paired to blood cultures is plotted in order of decreasing Bifidobacteria abundance from left to right. Underneath each stool sample is the clinical diagnosis associated with a given blood culture (bacteremia (red) or no bacteremia (green)). (C) Volcano plot of normalized metabolite concentrations. P-values were calculated using a two-tailed Wilcoxon rank sum test and are corrected for multiple comparisons using the Benjamini-Hochberg procedure. Values with log 2 fold-change >1 (corresponding to a 2-fold change with a p-value <0.05) were considered significant. (D and E) Quantitative levels for butyrate, propionate, lithocholic acid, and alloisolithocholic acid were compared from samples associated and not associated with SBP. Units for SCFA are mM, and units for BA derivatives are in μg/mL. Each point represents a single sample. Median and interquartile range are indicated by the horizontal line and box, respectively. […] Statistical comparisons between individual groups were analyzed using a two-tailed Wilcoxon rank sum test. […]

[4] = system: VRE (vancomycin resistant Enterococcus faecium, ATCC 700221); assay: VRE growth curves in B. longum conditioned media, SCFA- or lactulose-supplemented media; type: cell-based; settings: 50 mM lactulose in media
Experimental: FIGS. 11A-11F: Bifidobacterium longum supernatant inhibits VRE growth in vitro. (A) Schematic of experimental design for VRE growth in B. longum conditioned media (CM). B. longum was grown in BHIS for 24-hours prior to collecting and filtering the supernatant. VRE growing at steady state was then diluted to a low density (OD600=0.05) prior to inoculating in various dilutions of B. longum conditioned media in fresh BHIS. (B) VRE growth curves in 100%, 50%, 12.5%, and 0% CM with the pH of the 4 concentrations of CM in BHIS shown in the right portion of this panel. […] (E) VRE was grown in minimal media containing either no additive (blue) or 50 mM lactulose, and OD600 was measured over time. (F) VRE was grown in BHIS with or without 50 mM lactulose, and OD600 was measured over time. […]
The Bifidobacteria longum strains MSK.11.12 and DFI.2.45 were previously derived from two distinct healthy donor stool samples and whole genome sequenced (BioSample ID: SAMN19731851 and SAMN22167409). […] All growth curves were obtained in anaerobic culture conditions at 37° C. on a BioTek EPOCH2 microplate reader with BioTek Gen 5 3.11 software. Growth curves were analyzed in GraphPad Prism Version 9.4.0. Lactulose concentrations in were measured using the EnzyChrom™ Lactulose Assay Kit (ELTL-100).

[5] = system: B. longum
Experimental: B. longum was grown in regular media (blue) or media supplemented with 50 mM lactulose (red) or sucrose (green). (A) pH before and after 24 h of growth (n=3 for 0 h; n=6 for 24 h). (B) SCFA concentrations after 24 h of growth. n=6 all conditions. […] Plots are representative of three independent experiments with ≥3 technical replicates all with consistent results. TCA: taurocholic acid, GCA: glycocholic acid, CA: cholic acid, CDCA: chenodeoxycholic acid, DCA: deoxycholic acid, and LCA: lithocholic acid. (E) Schematic of B. longum gavage, lactulose administration, and stool collection in ex-GF mice. […] (I-K) SCFA concentrations before and 10-days after Bifidobacteria inoculation. Each dot represents one sample from each mouse. […] (L) Primary, (M) conjugated primary, and (N) secondary BA were measured at indicated timepoints. Each dot represents one sample from each mouse. […] Short chain fatty acids (SCFA, i.e. butyrate, acetate, propionate, and succinate) were derivatized with pentafluorobenzyl bromide (PFBBr) and analyzed via negative ion collision induced-gas chromatography-mass spectrometry ([-]CI-GC-MS, Agilent 8890) 92. Eight bile acids (BA, i.e. primary: cholic acid; conjugated primary: glycocholic acid, taurocholic acid; secondary: deoxycholic acid, lithocholic acid [LCA], isodeoxycholic acid; modified secondary: alloisolithocholic acid [alloisoLCA] and 3-oxolithocholic acid [3-oxoLCA]) were quantified (μg/mL) by negative mode liquid chromatography-electrospray ionization-quadrupole time-of-flight-MS ([-]LC-ESI-QTOF-MS, Agilent 6546). […] All mouse studies were approved by The University of Chicago Institutional Animal Care and Use Committee (IACUC, Protocol 72599). For germ-free studies, 6-18 week-old male and female C57BL/6 mice were used.

[6] = fecal samples from lactulose-treated patients
[7] = lactulose treated patients, one sample per patient
[8] = lactulose 10 days, B. longum colonized mice

OC[C@H]1O[C@@H](O[C@@H]2[C@@H](CO)OC(O)(CO)[C@H]2O)[C@H](O)[C@@H](O)[C@H]1O (mixture of isomers) [Lactulose, lactulose]
Regression estimate, association with Enterococcus abundance [1]: 0.11
Regression estimate, association with Enterococcus abundance ([1]; listed as lactulose): positively associates
Enterococcus abundance, mean [1, 6]: 19.4%
Enterococcus abundance, median [1, 6]: 0.9%
Enterococcus abundance, range [1, 6]: 0.0-100%
Regression estimate, association with Bifidobacteria abundance [2]: 0.17
Regression estimate, association with Bifidobacteria abundance ([2]; listed as lactulose): positively associates
Bifidobacteria abundance, mean [2, 7]: 22.2%
Bifidobacteria abundance, range [2, 7]: 0.0-94.7%
Fecal samples having ≥10% Bifidobacteria abundance ([2]; lactulose within 7 days prior to sample collection, one sample per patient): 45.2%
Bifidobacteria density ([2]; patients without antibiotics in the preceding 7 days, lactulose-treated vs not): significantly increased
Samples with lactulose exposure among bacteremia ([3]; N = 19): (32%)
Samples with lactulose exposure among no bacteremia ([3]; N = 227): (65%)
VRE growth [4]: modestly augments
Stool water content ([5]; GF mice, 20 g/L lactulose in water): increased
Fecal acetate concentration [5, 8]: elevated
Fecal conjugated BA concentrations [5, 8]: reduced
Fecal unconjugated primary BA concentrations [5, 8]: elevated
Lactulose in stool ([5]; mouse, in vivo): detectable
